System: X-MuLV
Test: X-MuLV inactivation by detergent in neutralized mAb protein A eluate, remaining infectivity by TCID50 assay on PG-4 cells
Type: cell-based, Xenotropic Murine Leukemia Virus
Conditions: 16° C.
Method: The pH of various protein A eluates was adjusted to 7.0 with 1M Tris buffer. The pH adjusted eluate was then filtered through a 0.22 um filter. Various volumes of 5% stock solution of Mega-10, Tween 20, or Tween 80 were added to the filtered neutralized protein A eluates. This was done to prepare protein A eluates containing various concentrations of each detergent. X-MuLV was then spiked at a 1:20 ratio to the neutralized protein A eluate containing various concentrations of each detergent that had been pre-incubated at a 16° C. water bath prior to the virus spiking. After a thorough mixing, an aliquot of a sample was removed immediately and quenched with a diluent (McCoy's medium containing 3 μg/mL of polybrene) at 1:12 for Mega-10 or at 1:100 for Tween 20 and Tween 80 to stop the inactivation, and the sample was designated as a time-zero sample. The remaining spiked eluate was returned to the water bath and the samples were collected at the indicated time to evaluate the viral inactivation kinetics.
The remaining X-MuLV infectivity in the samples post-inactivation treatment was determined by a TCID50 assay that is an endpoint dilution assay to quantify the amount of virus required to produce a cytopathic effect in 50% of inoculated tissue culture cells. Virus titers were estimated using the Spearman-Karber method and reported as TCID50/mL with a calculated 95% confidence interval (CI). Briefly, a sufficient number of 96-well plates with PG-4 (feline S^+L^−, ATCC#CRL-2032) cells were prepared the day before starting the viral inactivation experiments and incubated overnight in a 37° C. humidified CO2 incubator. A set of ten 3.2 fold dilution of the diluted positive control (1:100) and viral inactivated samples were prepared in a dilution block. Each set of the 11 serial dilutions of the samples were inoculated correspondingly onto wells (100 μL per well) of the first 11 columns in a 96-well plate that had been pre-seeded with PG-4 cells. The 12th column in the same plate was inoculated with the corresponding diluent to serve as non-virus negative control. The positive control was prepared by spiking the filtered neutralized protein A eluate with X-MuLV at a 1:20 ratio. The inoculated plates were then incubated in a 37° C. humidified CO2 incubator for approximate 2 hours. A volume of 100 uL of 2× assay medium (92% McCoy's 5A medium, 4% FBS, 2% Penicillin/Streptomycin, 2% L-Glutamine) was added to each well of the plates at the end of incubation. The plates were then returned to the same incubator, and continued incubation for 6 days. Each well of the plates were scored under a microscope for the presence of cytopathic effect (CPE) and the results were recorded in a scoring sheet. Virus titers were then estimated using the Spearman-Karber method and reported as TCID50/mL with a calculated 95% confidence interval (CI).
To evaluate robustness of X-MuLV inactivation by Mega-10 in Protein A eluates of mAb1, X-MuLV was spiked at a 1:20 ratio into the neutralized mAb1 protein A eluate contain 0.1%, 0.2% and 0.3% of Mega-10. After a thorough mixing, an aliquot of sample was removed at 0, 2.5, 5, 10, and 30 minutes after incubation at 16° C. The remaining virus titer in the collected samples was determined by the TCID50 assay.

[1] = 0.1% Mega-10, neutralized mAb1 protein A eluate pH 7.01, incubation 0 minutes
[2] = 0.1% Mega-10, neutralized mAb1 protein A eluate pH 7.01, incubation 2.5 minutes
[3] = 0.1% Mega-10, neutralized mAb1 protein A eluate pH 7.01, incubation 5.0 minutes
[4] = 0.1% Mega-10, neutralized mAb1 protein A eluate pH 7.01, incubation 10 minutes
[5] = 0.1% Mega-10, neutralized mAb1 protein A eluate pH 7.01, incubation 30 minutes
[6] = 0.1% Mega-10, neutralized mAb2 protein A eluate pH 7.01, incubation 0 minutes
[7] = 0.1% Mega-10, neutralized mAb2 protein A eluate pH 7.01, incubation 2.5 minutes
[8] = 0.1% Mega-10, neutralized mAb2 protein A eluate pH 7.01, incubation 5.0 minutes
[9] = 0.1% Mega-10, neutralized mAb2 protein A eluate pH 7.01, incubation 10 minutes
[10] = 0.1% Mega-10, neutralized mAb2 protein A eluate pH 7.01, incubation 30 minutes
[11] = 0.2% Mega-10, neutralized mAb1 protein A eluate pH 7.01, incubation 0 minutes
[12] = 0.2% Mega-10, neutralized mAb1 protein A eluate pH 7.01, incubation 5.0 minutes
[13] = 0.2% Mega-10, neutralized mAb1 protein A eluate pH 7.01, incubation 10 minutes
[14] = 0.2% Mega-10, neutralized mAb1 protein A eluate pH 7.01, incubation 30 minutes
[15] = 0.2% Mega-10, neutralized mAb2 protein A eluate pH 7.01, incubation 0 minutes
[16] = 0.2% Mega-10, neutralized mAb2 protein A eluate pH 7.01, incubation 2.5 minutes
[17] = 0.2% Mega-10, neutralized mAb2 protein A eluate pH 7.01, incubation 5.0 minutes
[18] = 0.2% Mega-10, neutralized mAb2 protein A eluate pH 7.01, incubation 10 minutes
[19] = 0.3% Mega-10, neutralized mAb1 protein A eluate pH 7.01, incubation 0 minutes
[20] = 0.3% Mega-10, neutralized mAb1 protein A eluate pH 7.01, incubation 5.0 minutes
[21] = 0.3% Mega-10, neutralized mAb1 protein A eluate pH 7.01, incubation 10 minutes
[22] = 0.3% Mega-10, neutralized mAb1 protein A eluate pH 7.01, incubation 30 minutes
[23] = 0.3% Mega-10, neutralized mAb2 protein A eluate pH 7.01, incubation 0 minutes
[24] = 0.3% Mega-10, neutralized mAb2 protein A eluate pH 7.01, incubation 5.0 minutes
[25] = 0.3% Mega-10, neutralized mAb2 protein A eluate pH 7.01, incubation 10 minutes
[26] = 0.3% Mega-10, neutralized mAb2 protein A eluate pH 7.01, incubation 30 minutes

## CCCCCCCCCC(=O)N(C)C[C@H](O)[C@@H](O)[C@H](O)[C@H](O)CO [Mega-10, N-Methylglucamide]
0.10% Mega 10 alone, neutralized mAb1 protein A eluate, 0 minutes (Table 2)
  LRF ± 95% CL: 0.33 ± 0.35
0.10% Mega 10 alone, neutralized mAb1 protein A eluate, 2.5 minutes (Table 2)
  LRF ± 95% CL: 0.33±0.29
0.10% Mega 10 alone, neutralized mAb1 protein A eluate, 2.5 minutes (Table 2), listed as Mega 10
  LRF ± 95% CL: 0.33 ± 0.29
0.10% Mega 10 alone, neutralized mAb1 protein A eluate, 5 minutes (Table 2)
  LRF ± 95% CL: 0.33 ± 0.32
0.10% Mega 10 alone, neutralized mAb1 protein A eluate, 10 minutes (Table 2)
  LRF ± 95% CL: 0.39 ± 0.36
0.10% Mega 10 alone, neutralized mAb1 protein A eluate, 30 minutes (Table 2)
  LRF ± 95% CL: 0.64 ± 0.33
[1]
  LRF ± 95% CL: 0.26 ± 0.28
  Log10 TCID50/mL: 6.53 ± 0.20 Log10 TCID50/mL
[2]
  LRF ± 95% CL: 0.38 ± 0.32
  Log10 TCID50/mL: 6.41 ± 0.26 Log10 TCID50/mL
[3]
  LRF ± 95% CL: 0.38 ± 0.28
  Log10 TCID50/mL: 6.41 ± 0.21 Log10 TCID50/mL
[4]
  LRF ± 95% CL: 0.38 ± 0.28
  Log10 TCID50/mL: 6.41 ± 0.20 Log10 TCID50/mL
[5]
  LRF ± 95% CL: 0.38 ± 0.23
  Log10 TCID50/mL: 6.41 ± 0.12 Log10 TCID50/mL
[6]
  LRF ± 95% CL: 0.36 ± 0.28
  Log10 TCID50/mL: 6.56 ± 0.22 Log10 TCID50/mL
[7]
  LRF ± 95% CL: 0.36 ± 0.28
  Log10 TCID50/mL: 6.56 ± 0.22 Log10 TCID50/mL
[8]
  LRF ± 95% CL: 0.36 ± 0.25
  Log10 TCID50/mL: 6.56 ± 0.18 Log10 TCID50/mL
[9]
  LRF ± 95% CL: 0.29 ± 0.26
  Log10 TCID50/mL: 6.63 ± 0.19 Log10 TCID50/mL
[10]
  LRF ± 95% CL: 0.36 ± 0.28
  Log10 TCID50/mL: 6.56 ± 0.22 Log10 TCID50/mL
0.15% Mega 10 alone, neutralized mAb2 protein A eluate, 0 minutes (Table 3)
  LRF ± 95% CL: 0.99 ± 0.30
0.15% Mega 10 alone, neutralized mAb2 protein A eluate, 2.5 minutes (Table 3)
  LRF ± 95% CL: 1.62 ± 0.30
0.15% Mega 10 alone, neutralized mAb2 protein A eluate, 5 minutes (Table 3)
  LRF ± 95% CL: 1.68±0.31
0.15% Mega 10 alone, neutralized mAb2 protein A eluate, 5 minutes (Table 3), listed as Mega 10
  LRF ± 95% CL: 1.68 ± 0.31
0.15% Mega 10 alone, neutralized mAb2 protein A eluate, 10 minutes (Table 3)
  LRF ± 95% CL: 1.94 ± 0.32
0.15% Mega 10 alone, neutralized mAb2 protein A eluate, 30 minutes (Table 3)
  LRF ± 95% CL: 1.94 ± 0.32
[11]
  LRF ± 95% CL: 2.91 ± 0.32
  Log10 TCID50/mL: 3.88 ± 0.25 Log10 TCID50/mL
0.2% Mega-10, neutralized mAb1 protein A eluate pH 7.01, incubation 2.5 minutes
  Log10 TCID50/mL: ≤1.21 Log10 TCID50/mL
[12]
  LRF ± 95% CL: ≥5.58 ± 0.19
  Log10 TCID50/mL: ≤1.21 Log10 TCID50/mL
[13]
  LRF ± 95% CL: ≥5.58 ± 0.19
  Log10 TCID50/mL: ≤1.21 Log10 TCID50/mL
[14]
  LRF ± 95% CL: ≥5.58 ± 0.19
  Log10 TCID50/mL: ≤1.21 Log10 TCID50/mL
0.2% Mega-10, neutralized mAb1 protein A eluate
  treatment time to inactivate X-MuLV to the level below the detection limit: 2.5 min
[15]
  LRF ± 95% CL: 4.73 ± 0.46
  Log10 TCID50/mL: 2.19 ± 0.43 Log10 TCID50/mL
[16]
  LRF ± 95% CL: 5.31±0.75
  Log10 TCID50/mL: 1.61 ± 0.73 Log10 TCID50/mL
[17]
  LRF ± 95% CL: 5.31 ± 0.75
  Log10 TCID50/mL: 1.61 ± 0.73 Log10 TCID50/mL
[18]
  LRF ± 95% CL: 5.50 ± 0.90
  Log10 TCID50/mL: 1.42 ± 0.88 Log10 TCID50/mL
0.2% Mega-10, neutralized mAb2 protein A eluate pH 7.01, incubation 30 minutes
  Log10 TCID50/mL: ≤1.11 ± 0.27 Log10 TCID50/mL
[19]
  LRF ± 95% CL: 3.79 ± 0.33
  Log10 TCID50/mL: 3.00 ± 0.27 Log10 TCID50/mL
0.3% Mega-10, neutralized mAb1 protein A eluate pH 7.01, incubation 2.5 minutes
  Log10 TCID50/mL: ≤1.21 Log10 TCID50/mL
[20]
  LRF ± 95% CL: ≥5.58 ± 0.19
  Log10 TCID50/mL: ≤1.21 Log10 TCID50/mL
[21]
  LRF ± 95% CL: ≥5.58 ± 0.19
  Log10 TCID50/mL: ≤1.21 Log10 TCID50/mL
[22]
  LRF ± 95% CL: ≥5.58 ± 0.19
  Log10 TCID50/mL: ≤1.21 Log10 TCID50/mL
0.3% Mega-10, neutralized mAb1 protein A eluate
  treatment time to inactivate X-MuLV to the level below the detection limit: 2.5 min
[23]
  LRF ± 95% CL: 4.73 ± 0.46
  Log10 TCID50/mL: 2.19 ± 0.43 Log10 TCID50/mL
0.3% Mega-10, neutralized mAb2 protein A eluate pH 7.01, incubation 2.5 minutes
  Log10 TCID50/mL: ≤1.11 Log10 TCID50/mL
[24]
  LRF ± 95% CL: ≥5.81 ± 0.18
  Log10 TCID50/mL: ≤1.11 Log10 TCID50/mL
[25]
  LRF ± 95% CL: ≥5.81 ± 0.18
  Log10 TCID50/mL: ≤1.11 Log10 TCID50/mL
[26]
  LRF ± 95% CL: ≥5.81 ± 0.18
  Log10 TCID50/mL: ≤1.11 Log10 TCID50/mL
0.3% Mega-10, neutralized mAb2 protein A eluate
  treatment time to inactivate X-MuLV to the level below detection: 2.5 min

Reference: US12123028B2, “Viral inactivation methods for continuous manufacturing of antibodies” (Bayer HealthCare LLC, priority 2018, dated 2024)
